# Like-named read-outs stand apart in the source and are kept apart here.
# Columns and labels:
# [1] = test system: A23187-Induced LTB₄ Generation; assay: Ex vivo inhibition of A23187-induced LTB4 generation in squirrel monkey blood; set-up: species or system Squirrel Monkeys; details: Primates, 1 h, 60 min after dosing, vehicle per footnotes 2-4
# Procedure: Ex Vivo Inhibition of A23187-Induced LTB₄ Generation in Squirrel Monkeys.
# Incubation of squirrel monkey whole blood with calcium ionophore A23187 stimulates the production of LTB₄. This LTB₄ production can be inhibited by a lipoxygenase inhibitor in vitro by incubating the blood with the inhibitor prior to A23187 challenge. By dosing squirrel monkeys with a lipoxygenase inhibitor prior to withdrawal of a blood sample, one can determine the ability of the lipoxygenase inhibitor to be absorbed into the bloodstream by measuring the inhibition of A23187 induced LTB₄ production ex vivo.
# Squirrel monkeys (400-650g) were fasted for 18 hours, anesthetized and dosed either orally or intraperitoneally with test compound. After the desired time period, blood was withdrawn from the femoral vein. The blood (0.5 mL) was heparinized, preincubated at 37°C for 5 minutes and stimulated with A23187 in DMSO to give a final concentration of 30 microM. The reaction was terminated with EGTA (final concentration 10 microM), and the blood centrifuged. Levels of LTB₄ in the plasma were then determined by radioimmunoassay.
# The results shown in Table 4 illustrate the ability of a prodrug of type 2a or 2b to be absorbed after ip or po dosing compared to the parent compound 1a.
# [2] = biological target: T1, 5-lipoxygenase (Homo sapiens, UniProt P09917); assay: Inhibition of 5-lipoxygenase (5-HETE biosynthesis) in human polymorphonuclear leukocytes; format: cell-based; details: human PMN's, 5-HETE band vs control; test concentration 1 microM; read-out: Inhibition of 5-LO % at 1 M
# T1 construct: Human PMN's (5 x 10⁶ cells/0.5 mL) in pH 7.2 phosphate buffer; endogenous in cells; host or cells: human polymorphonuclear leukocytes (PMN)
# T1 sequence (P09917 1-674): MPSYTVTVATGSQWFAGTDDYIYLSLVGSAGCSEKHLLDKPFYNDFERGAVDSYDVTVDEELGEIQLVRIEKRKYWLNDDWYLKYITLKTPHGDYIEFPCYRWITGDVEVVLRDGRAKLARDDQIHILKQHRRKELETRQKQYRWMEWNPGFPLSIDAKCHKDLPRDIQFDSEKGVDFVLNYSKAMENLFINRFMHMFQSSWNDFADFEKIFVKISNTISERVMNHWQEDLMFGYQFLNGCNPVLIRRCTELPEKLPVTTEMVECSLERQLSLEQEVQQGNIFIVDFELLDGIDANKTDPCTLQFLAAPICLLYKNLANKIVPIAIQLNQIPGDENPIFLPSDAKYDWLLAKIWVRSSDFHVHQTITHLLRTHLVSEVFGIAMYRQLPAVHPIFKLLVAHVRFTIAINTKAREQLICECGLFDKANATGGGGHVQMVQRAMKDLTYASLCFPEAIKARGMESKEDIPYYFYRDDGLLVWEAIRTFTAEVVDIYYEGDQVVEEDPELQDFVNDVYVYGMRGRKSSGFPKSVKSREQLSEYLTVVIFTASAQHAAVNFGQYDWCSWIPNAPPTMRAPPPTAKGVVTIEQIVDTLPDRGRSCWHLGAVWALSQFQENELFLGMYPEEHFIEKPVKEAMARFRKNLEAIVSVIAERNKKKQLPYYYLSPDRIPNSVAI
# Procedure: Inhibition of 5-Lipoxygenase in Human Polymorphonuclear Leukocytes (PMN's)
# The inhibition of 5-lipoxygenase is measured by determining whether and to what extent test compounds inhibit the amount of 5-HETE biosynthesized by human PMN's. 5-HETE biosynthesis serves as a marker for arachidonic acid metabolism by 5-lipoxygenase.
# Human PMN's (5 x 10⁶ cells/0.5 mL) in pH 7.2 phosphate buffer containing Ca²⁺ (0.6 mM) and Mg²⁺ (1.0 mM) were incubated with test compound for 15 minutes at 37°C with shaking. Calcium ionophore A23187 (0.25 mM, 0.01 mL) and [¹⁴C] arachidonic acid (0.10 microCi in 0.025 mL 0.01N NaOH) were added, and the mixture incubated another 2.5 minutes. The reaction was terminated by the addition of 0.025 mL of 1.0 N HCl. The mixture was then extracted with ethyl acetate-methylene chloride (2:3) supplemented with 12 microgram/mL cold arachidonic acid to reduce degradation of the metabolites. After concentrating the organic phase, the number of microlitres containing 5 x 10⁴ cpm was determined and that volume applied to a silica gel plate. The plate was developed in methylene-chloride-methanol-acetic acid-water (90:8:1:0.8), air dried, and counted on a Berthold linear TLC analyzer. The integrated area of the 5-HETE band was determined and compared with the control (no drug).
# In cases where the IC₅₀ was determined, the result is shown in microM.
# [3] = test system: 5-lipoxygenase; assay: Inhibition of antigen-induced, late phase inflammatory cell infiltration in guinea pigs; format: in vivo; details: 60 minutes before antigen challenge, lung lavage four hours after challenge
# Source text: Inhibition of Antigen-Induced, Late Phase Inflammatory Cell Infiltration in Guinea Pigs
# This model is used to measure the ability of a drug to inhibit 5-lipoxygenase in vivo. In addition to SRS-A, a chemotactic substance LTB₄ is also released by cells in the sensitized guinea pig lung upon stimulation by antigen. As a result there is a measurable influx of cells into the lung. Therefore, an inhibitor of 5-lipoxygenase could reduce the formation of LTB₄ and thereby reduce the cell influx into the lung.
# Male outbred Hartley strain albino guinea pigs (250-300 grams) were sensitized to ovalbumin as in the procedure for inhibition of antigen-induced, SRS-A mediated bronchioconstriction in conscious guinea pigs.
# Sensitized guinea pigs were fasted and pretreated with pyrilamine and indomethacin as in bronchioconstriction testing procedure. Test compounds, suspended in 1% acacia, were administered 60 minutes before antigen challenge. […] Whole lung lavage was performed with three 5 mL aliquots of normal saline buffered with sodium bicarbonate.
# Total cell counts were performed on a Coulter Counter, and differential cell counts were performed. Compounds were evaluated for their ability to alter the antigen-induced total cell influx and, more specifically, neutrophil (PMN) influx.
# [4] = test system: 5-lipoxygenase; assay: Inhibition of antigen-induced, SRS-A mediated bronchioconstriction in conscious guinea pigs; format: in vivo; details: i.p. in 5% Tween 80 suspension, 30mg/kg, 60 minutes before antigen challenge; % inhibition of the decrease in Cdyn
# Source text: Inhibition of Antigen-Induced, SRS-A Mediated Bronchioconstriction in Conscious Guinea Pigs
# This model is used to measure the ability of a drug to inhibit 5-lipoxygenase in vivo. SRS-A (slow reacting substance of anaphylaxis - also referred to as leukotrienes C₄, D₄ and E₄) is released by cells in the sensitized guinea pig upon stimulation by antigen, resulting in bronchioconstriction and change in pulmonary function. The leukotrienes are biosynthesized from arachidonic acid by the enzyme 5-lipoxygenase. Therefore, an inhibitor of 5-lipoxygenase could reduce the production of SRS-A and attenuate the bronchioconstriction.
# Male outbred Hartley strain albino guinea pigs (250-300 grams) were sensitized by i.p. injection of ovalbumin (3mg/kg) followed by an i.p. injection of Bordetella pertussis (about 5x10⁹ killed organisms) and studied 14 days later.
# Sensitized guinea pigs (fasted for 18 hours) were anesthesized and a catheter-tip pressure transducer was inserted into the pleural space of each animal. The animals are pretreated (i.p.) with pyrilamine (10mg/kg) and indomethacin (10mg/kg) to antagonize the effects of histamine and inhibit cyclooxygenase respectively. Cyclooxygenase products and histamine are released endogenously along with SRS-A, upon antigen challenge. Test compound is also administered i.p., 60 minutes before antigen challenge.
# The guinea pigs were placed in a "head out" plethysmograph and allowed to recover from anesthesia. Airflow into the respiratory system, pleural pressure and airflow signals were measured, and tidal volume, dynamic pulmonary compliance (Cdyn) and breathing frequency were calculated according to a published technique (E.G. Damen et al., Toxicol. Appl. Pharmacol., 1982, 64, 465). After baseline values for pulmonary function were obtained, the animals were challenged by aerosolized ovalbumin. The overall changes in pulmonary function parameters were determined by calculating the mean changes from baseline during the period 5 to 15 minutes following antigen challenge.
# Drug efficacy was determined by comparing the mean of the percent decrease in Cdyn from baseline in drug treated animals (N=4-6) to control animals (N=10-12).
SMILES,inhibition at 1 µM [2] [%],% Inhibition of Bronchioconstriction [4] [%],also measured
"Cc1cc(C=Cc2cccs2)cc(C)c1O [Compound 1a, 2,6-Dimethyl-4-[2-(2-thienyl)ethenyl]phenol]",91,75,"inhibition at 30 mg/kg ([1]; 30 mg/kg ip, read-out: Percent Inh. Monkey 2): 12%; inhibition at 30 mg/kg ([1]; 30 mg/kg ip, read-out: Percent Inh. Monkey 3): 4%; inhibition at 30 mg/kg ([1]; 30 mg/kg ip, read-out: Percent Inh. Monkey #1): 47%; inhibition at 30 mg/kg ([1]; 30 mg/kg po, read-out: Percent Inh. Monkey 2): 0%; inhibition at 30 mg/kg ([1]; 30 mg/kg po, read-out: Percent Inh. Monkey 3): 0%; inhibition at 30 mg/kg ([1]; 30 mg/kg po, read-out: Percent Inh. Monkey #1): 18%; % Inh. PMN ([3]; 30 mg/kg ip): 95%; % Inh. Total Cells ([3]; 30 mg/kg ip): 78%; % Inh. PMN ([3]; 30 mg/kg po): 14%; % Inh. Total Cells ([3]; 30 mg/kg po): 51%"
CC(C)c1cc(C=Cc2cccnc2)cc(C(C)C)c1O [Compound 1ab],73,34,–
"COc1cc(C=Cc2cccs2)cc(C)c1O [Compound 1d, 2-Methoxy-6-methyl-4-[2-(2-thienyl)ethenyl]phenol]",65,41,–
CCc1cc(C=Cc2cccs2)cc(OC)c1O [Compound 1e],85,51,–
CCCc1cc(C=Cc2cccs2)cc(OC)c1O [Compound 1f],76,57,% Inh. PMN ([3]; 30 mg/kg ip): 54%; % Inh. Total Cells ([3]; 30 mg/kg ip): 77%
Cc1cc(C=Cc2ccsc2)cc(C)c1O [Compound 1o],84,26,–
Cc1cc(C=Cc2cccnc2)cc(C)c1O [Compound 1x],62,39,–
